Measured values published in US10781456B2, “Carbon-neutral and carbon-positive photorespiration bypass routes supporting higher photosynthetic rate and yield” (Max-Planck-Gesellschaft zur Förderung der Wissenschaften …, priority 2015, dated 2020).

Columns and labels:
Format in all cases: biochemical
[1] = biological target: T1, propionyl-CoA carboxylase from Methylobacterium extorquens (PCCMe) variant PCCMe_D407I_Y143H (pccA SEQ ID NO: 2; pccB_D407I_Y143H SEQ ID NO: 6) (Methylorubrum extorquens, UniProt C5AP75+C5AWU5, D407I/Y143H); assay: PCCMe_D407I_Y143H activity for conversion of glycolyl-CoA into tartronyl-CoA (reaction 3#), coupled ATP hydrolysis (PK/LDH) assay; conditions: 37° C., pH 7.7, ATP hydrolysis assay, 0.125-3 mM glycolyl-CoA; n=2
T1 sequence (C5AP75 1-510 Y143H/D407I): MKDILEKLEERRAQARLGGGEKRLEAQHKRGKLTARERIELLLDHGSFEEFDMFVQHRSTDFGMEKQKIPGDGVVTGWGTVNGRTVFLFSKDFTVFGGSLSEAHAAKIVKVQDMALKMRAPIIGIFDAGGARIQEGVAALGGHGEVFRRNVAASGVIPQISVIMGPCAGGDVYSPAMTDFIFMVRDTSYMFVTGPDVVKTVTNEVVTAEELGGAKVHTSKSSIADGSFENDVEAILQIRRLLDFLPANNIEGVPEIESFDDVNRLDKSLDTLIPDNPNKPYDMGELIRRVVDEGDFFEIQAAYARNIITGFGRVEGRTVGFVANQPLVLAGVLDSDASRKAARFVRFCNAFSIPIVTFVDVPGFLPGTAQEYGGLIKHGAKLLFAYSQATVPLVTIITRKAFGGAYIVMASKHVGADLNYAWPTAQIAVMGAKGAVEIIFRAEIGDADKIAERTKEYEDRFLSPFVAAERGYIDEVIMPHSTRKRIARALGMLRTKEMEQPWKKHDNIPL
T1 sequence (C5AWU5 1-667): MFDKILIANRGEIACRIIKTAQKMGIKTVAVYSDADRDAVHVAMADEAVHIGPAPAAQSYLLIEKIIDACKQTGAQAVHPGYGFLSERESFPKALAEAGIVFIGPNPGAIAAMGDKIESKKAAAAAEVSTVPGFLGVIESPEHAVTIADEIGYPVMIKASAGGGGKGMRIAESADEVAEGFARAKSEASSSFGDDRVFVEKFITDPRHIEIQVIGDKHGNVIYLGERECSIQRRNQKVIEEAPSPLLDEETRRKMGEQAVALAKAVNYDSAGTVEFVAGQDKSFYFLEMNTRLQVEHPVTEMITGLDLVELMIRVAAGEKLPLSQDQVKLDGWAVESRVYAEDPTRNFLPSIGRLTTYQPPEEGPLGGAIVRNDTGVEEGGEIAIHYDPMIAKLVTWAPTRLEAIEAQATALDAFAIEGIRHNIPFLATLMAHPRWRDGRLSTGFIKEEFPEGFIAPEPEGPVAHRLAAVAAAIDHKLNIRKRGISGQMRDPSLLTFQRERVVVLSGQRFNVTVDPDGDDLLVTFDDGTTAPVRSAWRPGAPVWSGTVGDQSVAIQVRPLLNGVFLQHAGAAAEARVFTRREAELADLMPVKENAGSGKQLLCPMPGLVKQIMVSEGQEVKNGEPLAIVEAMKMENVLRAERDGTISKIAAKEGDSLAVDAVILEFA

[2] = system: malonyl-CoA reductase from Erythrobacter sp. NAP1 (MCRE), SEQ ID NO: 10; assay: MCRE activity for conversion of tartronyl-CoA into glycerate (reactions 4# and 5), NADPH oxidation; conditions: 37° C., assay as for MCRCa; n=2
[3] = biological target: T2, malonyl-CoA reductase from Chloroflexus aurantiacus (MCRCa), SEQ ID NO: 8 (Chloroflexus aurantiacus, UniProt Q6QQP7); assay: MCRCa activity for conversion of tartronyl-CoA into glycerate (reactions 4# and 5), NADPH oxidation; conditions: FIG. 8D and Table 5; 37° C., pH 7.5, 0.4 mM NADPH; n=3
T2 sequence (Q6QQP7 1-1220): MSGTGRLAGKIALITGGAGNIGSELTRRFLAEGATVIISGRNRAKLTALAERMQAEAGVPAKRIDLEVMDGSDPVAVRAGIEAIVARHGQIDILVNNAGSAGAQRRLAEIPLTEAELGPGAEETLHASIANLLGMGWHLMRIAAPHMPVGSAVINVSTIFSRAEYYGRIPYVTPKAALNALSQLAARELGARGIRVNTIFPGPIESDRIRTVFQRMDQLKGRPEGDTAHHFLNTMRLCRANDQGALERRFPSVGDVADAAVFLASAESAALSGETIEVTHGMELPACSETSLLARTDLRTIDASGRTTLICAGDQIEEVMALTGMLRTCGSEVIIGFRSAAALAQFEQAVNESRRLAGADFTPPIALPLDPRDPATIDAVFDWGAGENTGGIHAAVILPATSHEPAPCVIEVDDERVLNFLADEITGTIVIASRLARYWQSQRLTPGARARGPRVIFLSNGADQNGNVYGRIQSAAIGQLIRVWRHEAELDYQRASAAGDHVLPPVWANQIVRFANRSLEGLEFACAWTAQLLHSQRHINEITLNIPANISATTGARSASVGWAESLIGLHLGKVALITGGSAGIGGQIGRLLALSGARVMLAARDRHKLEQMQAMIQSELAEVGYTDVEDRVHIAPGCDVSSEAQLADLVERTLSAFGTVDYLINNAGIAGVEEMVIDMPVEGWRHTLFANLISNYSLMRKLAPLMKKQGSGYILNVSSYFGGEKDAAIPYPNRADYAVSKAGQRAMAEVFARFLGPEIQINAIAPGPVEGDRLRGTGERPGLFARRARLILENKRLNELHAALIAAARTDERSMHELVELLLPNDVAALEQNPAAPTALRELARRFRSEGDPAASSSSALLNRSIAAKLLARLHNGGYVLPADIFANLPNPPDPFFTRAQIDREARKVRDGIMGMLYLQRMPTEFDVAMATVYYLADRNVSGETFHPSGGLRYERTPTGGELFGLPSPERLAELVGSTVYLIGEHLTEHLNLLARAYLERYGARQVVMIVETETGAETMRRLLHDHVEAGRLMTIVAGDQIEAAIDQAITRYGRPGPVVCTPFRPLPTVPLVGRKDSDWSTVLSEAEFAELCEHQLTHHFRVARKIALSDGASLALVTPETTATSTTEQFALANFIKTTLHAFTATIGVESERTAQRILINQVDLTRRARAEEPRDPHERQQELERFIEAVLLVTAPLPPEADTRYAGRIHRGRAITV
Description: For the heterologous expression of the MCRCa protein (amino acid sequence is shown in SEQ ID NO: 8; corresponding nucleic acid sequence encoding the protein is depicted in SEQ ID NO: 7) the previously described pTRC-MCRCa plasmid (Kröger et al., 2011, Analytical biochemistry, 411(1), 100-105) was employed.
Cells were harvested at 10 000×g for 10 min and cell pellets were stored at −80° C. until purification of enzymes. Cell pellets of MCRCa and MCRE overexpressing cells were resuspended in two-fold volume of buffer AStrep (50 mM Tris/HCl, 150 mM NaCl, pH 7.8) containing 0.1 mg mL^−1 DNAse I. The cell suspension was passed through a French pressure cell twice at a pressure of 137 MPa and centrifuged at 100 000×g and 4° C. for 1 h. The supernatant was filtered through a 0.45 μm syringe filter and loaded at a flow rate of 1 mL min^−1 onto a 1 mL StrepTrap™ HP column (GE healthcare) which had previously been equilibrated with 5 column volumes of buffer AStrep. The column was washed with 20 column volumes of buffer AStrep and the protein was eluted with buffer AStrep containing 3 mM desthiobiotin. […]
The kinetics of the MCRCa enzyme for enzymatically converting the substrate tartonyl-CoA into glycerate (via reactions 4# and 5 both catalyzed by MCRCa) were determined spectrophotometrically at 365 nm following the oxidation of NADPH. […]

Row | SMILES | vmax [1] [U mg^−1] | Km [2] [µM] | vmax [2] [U mg^−1] | vmax [3] [U mg^−1]
1 | CC(C)(COP(=O)(O)OP(=O)(O)OC[C@H]1O[C@@H](n2cnc3c(N)ncnc32)[C@H](O)[C@@H]1OP(=O)(O)O)[C@@H](O)C(=O)NCCC(=O)NCCSC(=O)CO [glycolyl-CoA] | 1.5 ± 0.09 | – | – | –
2 | CC(C)(COP(=O)(O)OP(=O)(O)OC[C@H]1O[C@@H](n2cnc3c(N)ncnc32)[C@H](O)[C@@H]1OP(=O)(O)O)[C@@H](O)C(=O)NCCC(=O)NCCSC(=O)C(O)C(=O)O (stereo partly shown) [tartronyl-CoA] | – | 180 ± 40 | 0.23±0.01 | 0.6 ± 0.01
